The text below walks through data of US9706772B2, “Method for fungicidal and/or bactericidal treatment of resistant strains using essential oil(s)” (XEDA INTERNATIONAL, priority 2011, dated 2017).

The subject of experiment [1] is Monilinia fructicola Strain resistant to Pyrimethanil. Description: In-vitro inhibition of growth on PDA Petri dishes. The class given is cell-based. To be noted: dose not stated. The method, then: (§1) The samples were added to the artificial media and gently mixed before solidification of the Agar solution.
(§2) A small amount of fungal spores is placed in the centre of the potato dextrose agar (PDA) in the Petri dishes at 25°±1° C. for 5/6 days. At the end of the incubation period, we measure the inhibition of the halo that is formed in comparison with the untreated PDA Petri dishes (control).
(§3) The results are indicated as a percentage of the incidence of the disease and the efficacy percentage of the products tested.

In experiment [2] the test system is strains of Penicillium expansum resistant to pyrimethanil. Nature of the experiment: Efficacy of compositions on Gala apples, FIG. 1. Type of experiment: in vivo. Conditions: FIG. 1, "Gala" apples; over the doses shown. An excerpt: These compositions have been tested on various fungi or bacteria strains, such as illustrated in FIGS. 1 and 2. Unless otherwise indicated, the doses listed in the FIGS. 1 and 2 are given in ppm of active ingredient; the indications in ml/l refer to the quantity of composition C. […] Indeed it is observed that there is a synergistic effect between the fungicide and essential oils/terpene agents.

For experiment [3], the system named is Pennicillum spp. Strain resistant to Imazalil. Description: In-vitro inhibition of growth on PDA Petri dishes. Type of experiment: cell-based. The method, then: as §1, §2, §3
Another experiment concerns Pennicillum spp. Description: In-vitro inhibition of growth on PDA Petri dishes. The class given is cell-based. The method, then:
as §1, §2, §3

Experiment [4] has as its system Botrytis spp. Strain resistant to TBZ. Description: In-vitro inhibition of growth on PDA Petri dishes. Type of experiment: cell-based. The method, then: as §1, §2, §3

With `Cc1cc(C)nc(Nc2ccccc2)n1` [pyrimethanil], the efficacy in experiment [1] is on record as 45%; in experiment [2], “at most 60%”.

Regarding `Cc1ccc(C(C)C)c(O)c1` [Thymol], the “Efficacy (%)” value worked out at 70% in experiment [3] (Dose 100 ml/hl); 70% in experiment [3] (Dose 300 ml/hl); 80% in experiment [3] (Dose 500 ml/hl); 90% in experiment [3] (Dose 1,000 ml/hl); 20% in the experiment with Pennicillum spp. (Dose 100 ml/hl); 50% in the experiment on Pennicillum spp. (Dose 300 ml/hl). Further, the “Efficacy (%)” value in the experiment on Pennicillum spp. (Dose 500 ml/hl) and with Pennicillum spp. (Dose 1,000 ml/hl) was 70% throughout. For the same molecule, the “Incidence of Disease (%)” value in experiment [3] (Dose 100 ml/hl) worked out at 30%; in experiment [3] (Dose 300 ml/hl) it was 30%; in experiment [3] (Dose 500 ml/hl), 20%; in experiment [3] (Dose 1,000 ml/hl), 10%; in the experiment on Pennicillum spp. (Dose 100 ml/hl) it was 80%; in the experiment with Pennicillum spp. (Dose 300 ml/hl), 50%. Also, the “Incidence of Disease (%)” value in the experiment on Pennicillum spp. (Dose 500 ml/hl) and with Pennicillum spp. (Dose 1,000 ml/hl) was 30% in each case.

Consider `Cc1ccc(C(C)C)cc1O` [Carvacrol], for which the “Efficacy (%)” value in experiment [4] (Dose 100 ml/hl), in experiment [4] (Dose 300 ml/hl), in experiment [4] (Dose 500 ml/hl) and in experiment [4] (Dose 1,000 ml/hl) was 100% each time. The “Incidence of Disease (%)” value in experiment [4] (Dose 100 ml/hl), in experiment [4] (Dose 300 ml/hl), in experiment [4] (Dose 500 ml/hl) and in experiment [4] (Dose 1,000 ml/hl) was 0% in each case. Further, in experiment [4] (at all doses tested), the “control (in words)” value is recorded as “total control”.
